From PubChem BioAssay AID330 (DTP/NCI, 2004)
“And” between values parts separate entries of the source, which are not always exact repeats. Equal values may be shown once. Inconclusive results and toxic doses are left out. How the source made its calls: active means survival T/C of 150% or more; inactive means T/C below 125% in these data.

Tested on: P388 leukemia ip, CD2F1 mice, survival T/C
Test: NCI In Vivo Anticancer Drug Screen. Data for tumor model P388 Leukemia (intraperitoneal) in CD2F1 (CDF1) mice
Settings: endpoint: median survival time, higher = longer survival
Procedure, shortened: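 Mice carrying the transplanted tumor received test compound or vehicle. Survival was recorded in each group, and the value is the treated-group measurement divided by that of the vehicle-treated control group.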

[1] = dose: 60.0 mg/kg/injection, schedule: Q01DX005 (ip), vehicle: saline with Tween-80
[2] = dose: 120.0 mg/kg/injection, schedule: Q01DX005 (ip), vehicle: saline with Tween-80
[3] = dose: 240.0 mg/kg/injection, schedule: Q01DX005 (ip), vehicle: saline with Tween-80
[4] = dose: 50.0 mg/kg/injection, schedule: Q01DX009 (ip), vehicle: Klucel (hydroxypropylcellulose) (HPC)
[5] = dose: 200.0 mg/kg/injection, schedule: Q01DX009 (ip), vehicle: Klucel (hydroxypropylcellulose) (HPC)
[6] = dose: 6.25 mg/kg/injection, schedule: Q01DX009 (ip), vehicle: saline with Tween-80
[7] = dose: 12.5 mg/kg/injection, schedule: Q01DX009 (ip), vehicle: saline with Tween-80
[8] = dose: 25.0 mg/kg/injection, schedule: Q01DX009 (ip), vehicle: saline with Tween-80
[9] = dose: 50.0 mg/kg/injection, schedule: Q01DX009 (ip), vehicle: saline with Tween-80
[10] = dose: 50.0 mg/kg/injection, schedule: Q01DX005 (ip), vehicle: Klucel (hydroxypropylcellulose) (HPC)
[11] = dose: 100.0 mg/kg/injection, schedule: Q01DX005 (ip), vehicle: Klucel (hydroxypropylcellulose) (HPC)
[12] = dose: 200.0 mg/kg/injection, schedule: Q01DX005 (ip), vehicle: Klucel (hydroxypropylcellulose) (HPC)
[13] = dose: 100.0 mg/kg/injection, schedule: Q01DX009 (ip), vehicle: saline with Tween-80
[14] = dose: 200.0 mg/kg/injection, schedule: Q01DX009 (ip), vehicle: saline with Tween-80
[15] = dose: 50.0 mg/kg/injection, schedule: Q01DX005 (ip), vehicle: saline with Tween-80
[16] = dose: 100.0 mg/kg/injection, schedule: Q01DX005 (ip), vehicle: saline with Tween-80
[17] = dose: 200.0 mg/kg/injection, schedule: Q01DX005 (ip), vehicle: saline with Tween-80
[18] = dose: 50.0 mg/kg/injection, schedule: Q01DX009 (ip), vehicle: saline
[19] = dose: 60.0 mg/kg/injection, schedule: Q01DX005 (ip), vehicle: saline
[20] = dose: 120.0 mg/kg/injection, schedule: Q01DX005 (ip), vehicle: saline
[21] = dose: 200.0 mg/kg/injection, schedule: Q01DX009 (ip), vehicle: saline

Measured: T/C

O=C1C=C2c3ccccc3CC(C(=O)O)C2CC1 (stereo not drawn)
inactive: [1] 100 % of control | [2] 100 % of control | [3] 102 % of control

CC(=O)CC(c1ccccc1)C(Sc1ccccc1)(Sc1ccccc1)Sc1ccccc1 (stereo not drawn)
inactive: [4] 101 % of control | [5] 93 % of control

O=c1[nH]cnc2nn(C3OC(CO)C(O)C3O)cc12 (stereo not drawn)
inactive: dose: 0.39 mg/kg/injection, schedule: Q01DX009 (ip), vehicle: saline with Tween-80 104 % of control and 117 % of control | dose: 0.78 mg/kg/injection, schedule: Q01DX009 (ip), vehicle: saline with Tween-80 104 % of control and 116 % of control | dose: 1.56 mg/kg/injection, schedule: Q01DX009 (ip), vehicle: saline with Tween-80 107 % of control | dose: 3.12 mg/kg/injection, schedule: Q01DX009 (ip), vehicle: saline with Tween-80 93 % of control | [6] 93 % of control | [7] 101 % of control | [8] 96 % of control | [9] 104 % of control

CC1(C)CC(=O)C2C(C1)OC1CC(C)(C)CC(=O)C1C2c1ccc2c(c1)OCO2 (stereo not drawn)
inactive: [1] 104 % of control | [2] 100 % of control | [3] 97 % of control

COc1cc(N)c2ncccc2c1Br
inactive: [10] 100 % of control | [11] 104 % of control | [12] 97 % of control

CCCCCCCC(=O)OOC(C)(C)C
inactive: [1] 105 % of control | [2] 105 % of control | [3] 108 % of control

C1CCC(N2OC23CCCCC3)CC1 (stereo not drawn)
inactive: [8] 113 % of control | [9] 117 % of control | [13] 123 % of control | [14] 113 % of control

N#Cc1ccc(N2CCCC2)c(C#N)c1Cl
inactive: [10] 100 % of control | [11] 96 % of control | [12] 99 % of control

CNc1ccc(O)c2c1C(=O)c1ccccc1C2=O
inactive: dose: 25.0 mg/kg/injection, schedule: Q04DX002 (ip), vehicle: saline with Tween-80 93 % of control | dose: 50.0 mg/kg/injection, schedule: Q04DX002 (ip), vehicle: saline with Tween-80 92 % of control | dose: 100.0 mg/kg/injection, schedule: Q04DX002 (ip), vehicle: saline with Tween-80 101 % of control | dose: 200.0 mg/kg/injection, schedule: Q04DX002 (ip), vehicle: saline with Tween-80 109 % of control

COc1ccc2cccc3c4cccc5ccc(OC)c(c1c23)c54
inactive: [10] 97 % of control | [11] 99 % of control | [12] 99 % of control

COc1ccc(C2OC3=C(Nc4ccc([N+](=O)[O-])cc4N3)C2=O)cc1OC (stereo not drawn)
inactive: dose: 60.0 mg/kg/injection, schedule: Q01DX005 (ip), vehicle: Klucel (hydroxypropylcellulose) (HPC) 89 % of control | dose: 120.0 mg/kg/injection, schedule: Q01DX005 (ip), vehicle: Klucel (hydroxypropylcellulose) (HPC) 93 % of control | dose: 240.0 mg/kg/injection, schedule: Q01DX005 (ip), vehicle: Klucel (hydroxypropylcellulose) (HPC) 89 % of control

N#CC1=C(O)NC(O)=C(C#N)C12C(=O)Nc1ccccc12
inactive: [10] 98 % of control | [15] 104 % of control | [11] 101 % of control | [16] 104 % of control | [12] 99 % of control | [17] 104 % of control

CCCCCCCCCC[N+]1(CC)CCCC1
inactive: dose: 3.12 mg/kg/injection, schedule: Q01DX009 (ip), vehicle: saline 104 % of control | dose: 6.25 mg/kg/injection, schedule: Q01DX009 (ip), vehicle: saline 100 % of control

Cc1cn2ccccc2c[n+]1=O
inactive: dose: 5.0 mg/kg/injection, schedule: Q01DX009 (ip), vehicle: saline sonified 104 % of control | dose: 10.0 mg/kg/injection, schedule: Q01DX009 (ip), vehicle: saline sonified 90 % of control

O=C(/C=C(/SS/C(=C/C(=O)c1ccccc1)c1ccccc1)c1ccccc1)c1ccccc1
inactive: [4] 98 % of control | dose: 100.0 mg/kg/injection, schedule: Q01DX009 (ip), vehicle: Klucel (hydroxypropylcellulose) (HPC) 98 % of control | [5] 91 % of control

O=C(CC(c1cccnc1)C(C(=O)c1ccc(Cl)cc1)C(CC(=O)c1ccc(Cl)cc1)c1cccnc1)c1ccc(Cl)cc1 (stereo not drawn)
inactive: [15] 90 % of control | [16] 90 % of control | [17] 92 % of control

CCCNC1=C(C)C(=O)C2=C(C1=O)[C@H](COC(N)=O)[C@]1(OC)[C@@H]3N[C@@H]3CN21
inactive: dose: 6.25 mg/kg/injection, schedule: Q01DX009 (ip), vehicle: saline sonified 86 % of control | dose: 12.5 mg/kg/injection, schedule: Q04DX003 (ip), vehicle: saline with Tween-80 86 % of control

CN(C)CCCN1c2ccccc2Sc2ccc(F)cc21
inactive: [18] 122 % of control

CN(C)CC(CN(C)C)C(=O)C(C)(C)C
inactive: dose: 3.8 mg/kg/injection, schedule: Q01DX005 (ip), vehicle: saline 99 % of control | dose: 7.5 mg/kg/injection, schedule: Q01DX005 (ip), vehicle: saline 96 % of control | dose: 15.0 mg/kg/injection, schedule: Q01DX005 (ip), vehicle: saline 93 % of control | dose: 30.0 mg/kg/injection, schedule: Q01DX005 (ip), vehicle: saline 105 % of control | [19] 100 % of control and 104 % of control | [20] 104 % of control and 110 % of control

NC(N)=NS(=O)(=O)c1ccc(N=Cc2c3ccccc3nc3ccccc23)cc1
inactive: dose: 12.5 mg/kg/injection, schedule: Q04DX002 (ip), vehicle: Klucel (hydroxypropylcellulose) (HPC) 99 % of control | dose: 25.0 mg/kg/injection, schedule: Q04DX002 (ip), vehicle: Klucel (hydroxypropylcellulose) (HPC) 94 % of control | dose: 50.0 mg/kg/injection, schedule: Q04DX002 (ip), vehicle: Klucel (hydroxypropylcellulose) (HPC) 96 % of control | dose: 100.0 mg/kg/injection, schedule: Q04DX002 (ip), vehicle: Klucel (hydroxypropylcellulose) (HPC) 96 % of control | dose: 200.0 mg/kg/injection, schedule: Q04DX002 (ip), vehicle: Klucel (hydroxypropylcellulose) (HPC) 92 % of control | dose: 400.0 mg/kg/injection, schedule: Q04DX002 (ip), vehicle: Klucel (hydroxypropylcellulose) (HPC) 96 % of control

CCOC(=O)c1[nH]c(C)nc1/N=N/N(C)C
inactive: dose: 25.0 mg/kg/injection, schedule: Q01DX009 (ip), vehicle: saline 119 % of control | [18] 116 % of control | [21] 116 % of control

O=[N+]([O-])c1ccc(C=C2C(Cl)=C(Cl)C(Cl)=C2Cl)cc1
inactive: [6] 91 % of control | [7] 100 % of control

NC(=O)C1CNCC(C(N)=O)C1 (stereo not drawn)
inactive: [18] 100 % of control and 98 % of control | dose: 100.0 mg/kg/injection, schedule: Q01DX009 (ip), vehicle: saline 98 % of control | [21] 99 % of control

Cc1cc(O)c(C(c2ccncc2)c2c(O)cc(C)[nH]c2=O)c(=O)[nH]1
inactive: [9] 102 % of control | [13] 95 % of control | [14] 94 % of control

N=c1ccccn1CCO
inactive: [19] 94 % of control | [20] 99 % of control

Cc1ccc(N2C(c3ccccc3)=CC(=C3C=CC(=O)C=C3)C=C2c2ccccc2)cc1
inactive: dose: 3.75 mg/kg/injection, schedule: Q01DX005 (ip), vehicle: saline with Tween-80 110 % of control | dose: 7.5 mg/kg/injection, schedule: Q01DX005 (ip), vehicle: saline with Tween-80 112 % of control | dose: 15.0 mg/kg/injection, schedule: Q01DX005 (ip), vehicle: saline with Tween-80 103 % of control

C/C(=N\NC(=S)Nc1nccs1)c1nccc2ccccc12
inactive: [15] 100 % of control | [16] 114 % of control | [17] 122 % of control

CCOC(=O)/C=C(/C)Sc1cc(O)ccc1O
inactive: [9] 102 % of control | [13] 111 % of control | [14] 109 % of control

CCCCCCCOCC(=O)O
inactive: [9] 100 % of control | [13] 94 % of control

COC(=O)C1(CC(=O)c2ccc(F)cc2)NC(=S)NC(=O)C1C#N (stereo not drawn)
inactive: [1] 99 % of control | [2] 98 % of control | [3] 106 % of control

CCOC(=O)c1cnc2cc(Cl)ccc2c1N=[N+]=[N-]
inactive: [1] 91 % of control | [2] 100 % of control | [3] 99 % of control

CCOC(=O)CC1=CS/C(=C(\C#N)C(=O)OCC)N1c1ccccc1
inactive: [15] 100 % of control | [16] 100 % of control | [17] 100 % of control
